Measurements: patent US20100056508A1, “AMINE DERIVATIVES AND THEIR USE IN BETA-2-ADRENORECEPTOR MEDIATED DISEASES” (ASTRAZENECA AB, priority 2006, published 2010)

What was measured:
[1] = biological target: T1, recombinant human α1D receptor (Homo sapiens, UniProt P25100); assay: Adrenergic α1D selectivity assay, [3H]-prazosin binding to membranes; conditions: inhibition of [3H]-prazosin binding, HEK cell membranes, read-out: α1 bind pIC50 (converted)
T1 construct: expressed in transfected cells; host or cells: human embryonic kidney 293 cells (HEK93 [sic]), membranes
T1 sequence (P25100 1-572): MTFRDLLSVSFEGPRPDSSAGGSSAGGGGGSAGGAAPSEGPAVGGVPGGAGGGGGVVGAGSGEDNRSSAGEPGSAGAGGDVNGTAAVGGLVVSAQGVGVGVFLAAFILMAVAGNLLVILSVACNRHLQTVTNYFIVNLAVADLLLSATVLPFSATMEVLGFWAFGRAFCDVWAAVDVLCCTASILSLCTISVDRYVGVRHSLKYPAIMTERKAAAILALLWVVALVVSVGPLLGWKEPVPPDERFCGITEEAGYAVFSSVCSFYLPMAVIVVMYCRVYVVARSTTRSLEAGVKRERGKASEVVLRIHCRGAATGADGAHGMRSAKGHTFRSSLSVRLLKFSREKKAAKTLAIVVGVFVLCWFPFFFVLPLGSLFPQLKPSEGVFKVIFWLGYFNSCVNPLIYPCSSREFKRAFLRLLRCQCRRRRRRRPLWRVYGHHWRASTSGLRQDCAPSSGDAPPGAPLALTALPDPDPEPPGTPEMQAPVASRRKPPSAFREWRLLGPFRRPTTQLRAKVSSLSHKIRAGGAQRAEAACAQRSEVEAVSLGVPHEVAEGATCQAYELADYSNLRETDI
Protocol: Membranes were prepared from human embryonic kidney 293 ([…]) cells expressing recombinant human α1D receptor. These were diluted in Assay Buffer (50 mM HEPES, 1 mM EDTA, pH 7.4) to provide a final concentration of membranes that gave a clear window between maximum and minimum specific binding.
Assays were performed in U-bottomed 96-well polypropylene plates. 10 μL [^3H]-prazosin (0.3 nM final concentration) and […] of test compound (10× final concentration) were added to each test well. For each assay plate 8 replicates were obtained for [^3H]-prazosin binding in the presence of 10 μL vehicle (10% (v/v) DMSO in Assay Buffer; defining maximum binding) or 10 μL BMY7378 (10 μM final concentration; defining non-specific binding (NSB)). Membranes were then added to achieve a final volume of 100 μL. The plates were incubated for 2 hours at room temperature and then filtered onto PEI coated GF/B filter plates, pre-soaked for 1 hour in Assay Buffer, using a 96-well plate Tomtec cell harvester. Five washes with 250 μL wash buffer (50 mM HEPES, 1 mM EDTA, pH 7.4) were performed at 4° C. to remove unbound radioactivity. The plates were dried then sealed from underneath using Packard plate sealers and MicroScint-O (50 μL) was added to each well. The plates were sealed (TopSeal A) and filter-bound radioactivity was measured with a scintillation counter (TopCount, Packard BioScience) using a 3-minute counting protocol.
(§1) Total specific binding (B0) was determined by subtracting the mean NSB from the mean maximum binding. NSB values were also subtracted from values from all other wells. […] Data was fitted to a four parameter logistic equation to determine the compound potency, which was expressed as pIC50 (negative log molar concentration inducing 50% inhibition of [^3H]-prazosin binding).

[2] = biological target: T2, recombinant human Dopamine Subtype D2s receptors (Homo sapiens, UniProt P14416); assay: Dopamine D2 selectivity assay, [3H]-spiperone binding to membranes; conditions: inhibition of [3H]-spiperone binding, read-out: D2 bind pIC50 (converted)
T2 construct: purchased Perkin Elmer
T2 sequence (P14416 1-414 isoform P14416-2): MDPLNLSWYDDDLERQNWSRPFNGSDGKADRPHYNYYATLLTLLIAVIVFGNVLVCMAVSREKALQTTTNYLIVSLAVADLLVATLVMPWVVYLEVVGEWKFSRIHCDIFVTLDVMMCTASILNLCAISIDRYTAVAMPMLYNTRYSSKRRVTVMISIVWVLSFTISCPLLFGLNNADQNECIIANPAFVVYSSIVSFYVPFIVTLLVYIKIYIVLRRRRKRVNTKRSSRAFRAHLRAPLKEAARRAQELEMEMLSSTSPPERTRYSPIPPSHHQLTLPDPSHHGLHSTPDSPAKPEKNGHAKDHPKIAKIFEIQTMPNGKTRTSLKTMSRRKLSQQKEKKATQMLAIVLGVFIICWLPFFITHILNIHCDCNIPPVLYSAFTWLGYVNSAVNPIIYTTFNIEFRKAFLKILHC
Protocol: Membranes containing recombinant human Dopamine Subtype D2s receptors were obtained from Perkin Elmer. These were diluted in Assay Buffer (50 mM HEPES, 1 mM EDTA, 120 mM NaCl, 0.1% gelatin, pH 7.4) to provide a final concentration of membranes that gave a clear window between maximum and minimum specific binding.
Assays were performed in U-bottomed 96-well polypropylene plates. 30 μL [^3H]-spiperone (0.16 nM final concentration) and 30 μL of test compound (10× final concentration) were added to each test well. For each assay plate 8 replicates were obtained for [^3H]-spiperone binding in the presence of 30 μL vehicle (10% (v/v) DMSO in Assay Buffer; defining maximum binding) or 30 μL Haloperidol (10 μM final concentration; defining non-specific binding (NSB)). Membranes were then added to achieve a final volume of 300 μL. The plates were incubated for 2 hours at room temperature and then filtered onto PEI coated GF/B filter plates, pre-soaked for 1 hour in Assay Buffer, using a 96-well plate Tomtec cell harvester. Five washes with 250 μL wash buffer (50 mM HEPES, 1 mM EDTA, 120 mM NaCl, pH 7.4) were performed at 4° C. to remove unbound radioactivity. The plates were dried then sealed from underneath using Packard plate sealers and MicroScint-0 (50 μL) was added to each well. The plates were sealed (TopSeal A) and filter-bound radioactivity was measured with a scintillation counter (TopCount, Packard BioScience) using a 3-minute counting protocol.
as §1, with “[^3H]-spiperone” for “[^3H]-prazosin”

Row | Compound | IC50 [1] | IC50 [2]
1 | O=C(CCOCCc1ccccc1)N(CCNCCc1ccc(O)c2[nH]c(=O)ccc12)C1CCCCC1 [Example 2, N-Cyclohexyl-N-(2-(2-(8-hydroxy-2-oxo-1,2-dihydroquinolin-5-yl)ethylamino)ethyl)-3-phenethoxypropanamide] | 794 nM | > 6310 nM
2 | O=C(CCNCCc1cccc(Cl)c1)N(CCNCCc1ccc(O)c2[nH]c(=O)ccc12)C1CCCCCC1 [Example 3, 3-(3-Chlorophenethylamino)-N-cycloheptyl-N-(2-(2-(8-hydroxy-2-oxo-1,2-dihydroquinolin-5-yl)ethylamino)ethyl)propanamide bis(trifluoroacetate)] | 79.4 nM | 200 nM
3 | O=C(CCNCCc1ccc(Cl)cc1)N(CCNCCc1ccc(O)c2[nH]c(=O)ccc12)C1CCCCCC1 [Example 4, 3-(4-Chlorophenethylamino)-N-cycloheptyl-N-(2-(2-(8-hydroxy-2-oxo-1,2-dihydroquinolin-5-yl)ethylamino)ethyl)propanamide bis(trifluoroacetate)] | 79.4 nM | 79.4 nM
4 | CCOc1cccc(CCNCCC(=O)N(CCNCCc2ccc(O)c3[nH]c(=O)ccc23)C2CCCCCC2)c1 [Example 11, N-Cycloheptyl-3-(3-ethoxyphenethylamino)-N-(2-(2-(8-hydroxy-2-oxo-1,2-dihydroquinolin-5-yl)ethylamino)ethyl)propanamide bis(trifluoroacetate)] | 316 nM | 501 nM
5 | O=C(CCNCCc1cccc(Cl)c1)N(CCNCCc1ccc(O)c2[nH]c(=O)ccc12)C1CCCCC1 [Example 13, 3-(3-Chlorophenethylamino)-N-cyclohexyl-N-(2-(2-(8-hydroxy-2-oxo-1,2-dihydroquinolin-5-yl)ethylamino)ethyl)propanamide bis(trifluoroacetate)] | 79.4 nM | 50.1 nM
6 | O=C(CCNCCc1ccc(Cl)cc1)N(CCNCCc1ccc(O)c2[nH]c(=O)ccc12)C1CCCCC1 [Example 14, 3-(4-Chlorophenethylamino)-N-cyclohexyl-N-(2-(2-(8-hydroxy-2-oxo-1,2-dihydroquinolin-5-yl)ethylamino)ethyl)propanamide bis(trifluoroacetate)] | 501 nM | 251 nM
7 | O=C(CCNCCc1cc(F)cc(F)c1)N(CCNCCc1ccc(O)c2[nH]c(=O)ccc12)C1CCCCC1 [Example 15, N-Cyclohexyl-3-(3,5-difluorophenethylamino)-N-(2-(2-(8-hydroxy-2-oxo-1,2-dihydroquinolin-5-yl)ethylamino)ethyl)propanamide bis(trifluoroacetate)] | 501 nM | 1260 nM
8 | O=C(CCNCCc1cc(F)ccc1F)N(CCNCCc1ccc(O)c2[nH]c(=O)ccc12)C1CCCCC1 [Example 17, N-Cyclohexyl-3-(2,5-difluorophenethylamino)-N-(2-(2-(8-hydroxy-2-oxo-1,2-dihydroquinolin-5-yl)ethylamino)ethyl)propanamide bis(trifluoroacetate)] | 251 nM | 1260 nM
9 | O=C(CCNCCc1cccc(F)c1F)N(CCNCCc1ccc(O)c2[nH]c(=O)ccc12)C1CCCCC1 [Example 18, N-Cyclohexyl-3-(3-difluorophenethylamino)-N-(2-(2-(8-hydroxy-2-oxo-1,2-dihydroquinolin-5-yl)ethylamino)ethyl)propanamide bis(trifluoroacetate)] | 398 nM | 3160 nM
10 | O=CNc1cc(CCNCCN(C(=O)CCNCCc2ccccc2)C2CCCCC2)ccc1O [Example 21, N-Cyclohexyl-N-(2-(3-formamido-4-hydroxyphenethylamino)ethyl)-3-(phenethylamino)propanamide] | 79.4 nM | 1260 nM
11 | O=C(CCNCCc1ccccc1)N(CCNCCc1ccc(O)c(O)c1)C1CCCCC1 [Example 22, N-Cyclohexyl-N-(2-(3,4-dihydroxyphenethylamino)ethyl)-3-(phenethylamino)propanamide bis(trifluoroacetate)] | 200 nM | 501 nM
